The values that follow come from PMC10933344, “A lncRNA Dleu2-encoded peptide relieves autoimmunity by facilitating Smad3-mediated Treg induction” (EMBO Reports, 2024).

In assay [1] the test system is Smad3 binding to Foxp3 CNS1 region. In words: EMSA, Foxp3 CNS1 probe, NIH/3T3 nuclear lysates. The following applies: 3, 10, 30 μM; NIH/3T3 nuclear extracts. Here is the method: EMSA was performed using the LightShift Chemiluminescent EMSA kit (Thermo Fisher Scientific, #20148). Briefly, Nuclear extracts of NIH/3T3 cells were prepared using theNE-PER Nuclear and Cytoplasmic Extraction Kit (Thermo Fisher Scientific, #78835). Complementary DNA oligonucleotide Foxp3 CNS1 region probes were 5′-[…]-3′ and 5′-[…]-3′, AP-1 probes were 5′-[…]-3′ and 5′-[…]-3′, PAI-1 probes were 5′-[…]-3′ and 5′-[…]-3′. Probes were end-labeled with biotin and annealed. The reaction mix consists of labeled oligonucleotides, 10 µg of the nuclear extracts, and 3, 10, 30 μM Dleu2-17aa or scrPEP. The binding reaction was incubated at room temperature for 30 min, followed by loading onto a 6% native DNA polyacrylamide gel. The gel was prerun and run with […] Tris-Borate-EDTA and processed according to the manufacturer’s instructions.

Assay [2] concerns CD4+ T cells in spleen of EAE mice. In words: Flow cytometry of spleen T cells of treated EAE mice. The following applies: 100 μg i.v. Type of assay: in vivo, mouse. On the procedure: Figure 5 Dleu2-17aa attenuates EAE by promoting Treg cells. (A) Schematic diagram of MOG-induced EAE and treatment strategies with Dleu2-17aa, scrPEP, and Glatiramer. Mice received 100 μg of Dleu2-17aa or scrPEP every 3 days via i.v. injection or 150 μg of Glatiramer every day for seven times via s.c. on days 9 to 15. (B) Clinical scores were examined daily from day 9 using a scoring system ranging from 0 (no sign) to 5 (complete paralysis or dead). The x-axis represents experimental days, and the y-axis represents symptom severity (n = 8–9). (C) Representative Luxol fast blue (LFB) and hematoxylin and eosin staining (H&E) staining sections for treated EAE spinal cord. Scale bars: 100 μm. (D) Histopathology scores of inflammations and demyelination in treated EAE mice spinal cord using a scoring system ranging from 0 (no inflammatory cells or demyelination) to 4 (extensive inflammatory cells infiltration or confluent foci of demyelination) (n = 5–8). (E) Representative dot plots (left panel) and frequency (right panel) of CD44^hiCD62L^lo activated T cells, Foxp3^+ Treg cells, IL-17A^+ Th17 cells, and IFN-γ^+ Th1 cells gated on CD4^+ T cells in the spleen 14 days post immunization of MOG (n = 3). (F) Representative dot plots and frequency of CD4^+, Foxp3^+ Treg cells, and IFN-γ^+ Th1 cells gated on CD4^+ T cells in the CNS 14 days post immunization of MOG (n = 3). Data information: n indicates biological replicate. Error bars are mean ± SEM; *P < 0.05, **P < 0.01, and ***P < 0.001, n.s. indicates no significant difference. Statistical analysis was by two-way ANOVA for (B) and two-tailed Student’s t-test for (D–F). Source data are available online for this figure. TEXT PRINTED IN THE PICTURE: (E) scrPEP: Spleen: CD62L-PE-DF594 / CD44-PE: 78.2; Spleen: Foxp3-PE / CD4-APC: 7.38; Spleen: IFN-γ-Percp-cy5.5 / Il-17A-FITC: 4.67; Spleen: IFN-γ-Percp-cy5.5 / Il-17A-FITC: 0.18; Spleen: IFN-γ-Percp-cy5.5 / Il-17A-FITC: 94.7; Spleen: IFN-γ-Percp-cy5.5 / Il-17A-FITC: 0.44 | (E) Dleu2-17aa: Spleen: CD62L-PE-DF594 / CD44-PE: 37.2; Spleen: Foxp3-PE / CD4-APC: 12.9; Spleen: IFN-γ-Percp-cy5.5 / Il-17A-FITC: 2.83; Spleen: IFN-γ-Percp-cy5.5 / Il-17A-FITC: 0.26; Spleen: IFN-γ-Percp-cy5.5 / Il-17A-FITC: 96.1; Spleen: IFN-γ-Percp-cy5.5 / Il-17A-FITC: 0.79 | (F) scrPEP: CNS: FSC / CD4-APC: 9.03; CNS: Foxp3-PE / CD4-APC: 8.47; CNS: IFN-γ-Percp-cy5.5 / Il-17A-FITC: 22.9; CNS: IFN-γ-Percp-cy5.5 / Il-17A-FITC: 2.00; CNS: IFN-γ-Percp-cy5.5 / Il-17A-FITC: 69.7; CNS: IFN-γ-Percp-cy5.5 / Il-17A-FITC: 5.44 | (F) Dleu2-17aa: CNS: FSC / CD4-APC: 3.33; CNS: Foxp3-PE / CD4-APC: 15.5; CNS: IFN-γ-Percp-cy5.5 / Il-17A-FITC: 13.9; CNS: IFN-γ-Percp-cy5.5 / Il-17A-FITC: 2.65; CNS: IFN-γ-Percp-cy5.5 / Il-17A-FITC: 77.7; CNS: IFN-γ-Percp-cy5.5 / Il-17A-FITC: 5.79 DOUBTS OF THE COPYIST ABOUT THIS PICTURE: Panels E and F: the gate and quadrant numbers in the dot plots are printed with no measure or unit; the tissue heading and the axis labels of each plot are written in front of them. For the quadrant plots the order is upper left, upper right, lower left, lower right. / Panels E and F: the gate numbers are in small print, so 3, 5, 6, 8 and 9 are best readings: E scrPEP 78.2, 7.38, 4.67, 0.18, 94.7; E Dleu2-17aa 37.2, 12.9, 2.83, 0.26, 96.1, 0.79; F scrPEP 9.03, 8.47, 22.9, 69.7, 5.44; F Dleu2-17aa 3.33, 15.5, 13.9, 2.65, 5.79.
For active EAE immunization, myelin oligodendrocyte glycoprotein peptide (MOGp35–55, […], GenScript) was emulsified in complete Freund adjuvant (Sigma-Aldrich). An equivalent of 300 μg MOG peptide was injected per mouse subcutaneously followed by 200 ng of pertussis toxin (Merck-Calbiochem) injection intravenously on day 0 and day 2 of immunization. […]
In general terms: Flow cytometry measures light scatter and fluorescence of single cells or particles in a stream.

As for “ARGPARRMRGGRRRRLR [scrPEP, scrambled control peptide of Dleu2-17aa]”, the “Smad3 binding to the CNS1 region of Foxp3 (EMSA)” value in assay [1] is reported as “did not”. In addition, the “CD62LloCD44+/ CD4+ Cells(%)” value in assay [2] (replicate 1) was determined as 58.3%; in assay [2] (replicate 2) it was 60.9%; in assay [2] (replicate 3), 61.3%; in assay [2] (replicate 4), 78.2%. Also, the “Foxp3+/ CD4+ Cells (%)” value was 7.65% in assay [2] (replicate 1), 6.51% in assay [2] (replicate 2), 6.5% in assay [2] (replicate 3) and 6.85% in assay [2] (replicate 4). Also, the “IFN-γ+/ CD4+ Cells(%)” value in assay [2] (replicate 1) is given as 4.58%; in assay [2] (replicate 2), 4.35%; in assay [2] (replicate 3), 4.11%; in assay [2] (replicate 4) it was 4.28%.
